Laboratory results: US20180118648A1, “5-SUBSTITUTED-5-HYDROXY-5-ARYL-3-OXO-PENTANOATE DERIVATIVES AND THEIR ENANTIOPURE FORMS” (OKINAWA INSTITUTE OF SCIENCE AND TECHNOLOGY SCHOOL …, priority 2015, published 2018)

Structure (SMILES) | melting point [°C]
CCOC(=O)/C=C(\C[C@@](O)(c1ccccc1)C(F)(F)F)N[C@H](C)c1ccccc1 [Compound 5a-1, (R)-ethyl 6,6,6,-trifluoro-5-hydroxy-5-phenyl-(((R)-1-phenyl)amino)hex-2-enoate] | 126
CCOC(=O)/C=C(\C[C@@](O)(c1cccs1)C(F)(F)F)N[C@H](C)c1ccccc1 [Compound 5ac-1, (S)-ethyl 6,6,6-trifluoro-5-hydroxy-3-(((R)-1-phenylethyl)amino)-5-(thiophen-2-yl)hexa-2-enoate] | 133
